Results published in US5614548A, “Quaternary amine containing ether or ester lipid derivatives and therapeutic compositions” (priority 1994, dated 1997).

Legend:
[1] = system: herpes simplex virus type 2 (HSV-2); assay: HSV-2 plaque formation in Vero cell monolayers; type: cell-based; details: 2 μM, in words
extracellular HIV-1 = assay: Direct inactivation of extracellular HIV-1 infectivity; type: cell-based, human immunodeficiency virus type 1 (HIV-1)
Experimental: Since ether lipid (EL) analogs are membrane interactive, see, e.g. , A. Noseda et al., Biochim. Biophys. Acta 945, 92 (1988), we determined whether Compound E could directly inactivate extracellular HIV-1 infectivity. About 350 plaque forming units of HIV-1 were mixed with antiviral concentrations (2.0 μM) of E or with control medium alone in a total volume of 100 μl. After three hours of incubation at 37° C., the virus compound and virus medium mixtures were diluted 20-fold to reduce the concentration of Compound E below a significant antiviral concentration. Aliquots (100 μl) of the diluted HIV-1 were added to CEM-SS cell monolayers to measure residual virus infectivity by plaque count. A mean of 22 plaques (N=2) were counted for Compound E-treated HIV-1 and a mean of 27 plaques (N=2) for medium-treated HIV-1.

HIV-1 [2] = assay: Infectious HIV-1 multiplication (plaque forming units); type: cell-based, human immunodeficiency virus type 1 (HIV-1); details: in words
Experimental: (§1) In brief, CEM-SS cells were infected with HIV-1. At various times after infection (3, 6, 8, 10, 13 days) the overlay fluids were replaced with fresh medium. Overlay fluids replaced on days 8, 10 and 13 were saved at -80° C. to measure HIV-1 plaque forming units according to our described protocol above and RT activity (described by Poiesz et al., Proc. Natl. Acad. Sci. U.S.A. 77, 7415 (1980). Results are given in Table 8 below.

reverse transcriptase = assay: Reverse transcriptase activity in HIV-1 infected CEM-SS cells; type: cell-based, human immunodeficiency virus type 1 (HIV-1); details: in words
Experimental: By way of further background, in our assay HIV-1 syncytial plaques are seen as large, multicellular foci (10 to 25 nuclei/syncytium) that appear either brown and granular or clear. Since the number of HIV-1 syncytial plaques correlates with reverse transcriptase (RT) and p24 core antigen activity in the HIV-1 infected cell overlay fluids, the syncytial plaque assay can be used to quantify the amount of infectious virus. Reverse transcriptase activity was assayed according to a described procedure (B. J. Poeisz et al., Proc. Natl. Acad. Sci. (U.S.A.) […], 7415 (1980)). The activity of p24 core antigen induced by HIV-1 infection of CEM-SS cells was measured spectrophotometrically using the commercial Abbott EIA.
as §1

HIV-1 [3] = assay: HIV-1 plaque assay, inhibitor added 30 minutes before infection; type: cell-based, human immunodeficiency virus type 1 (HIV-1); details: vs HSV-2, in words
Outline: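 Syncytial plaque assay with compound added 30 min before HIV-1 infection, using dextran sulfate as positive control. Plaques (multicellular foci of 10–25 nuclei) counted 5 days post-infection. Inhibition expressed as % versus untreated controls.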

extracellular HSV-2 = assay: Direct inactivation of extracellular HSV-2 infectivity; type: cell-based, herpes simplex virus type 2 (HSV-2); details: 2 μM, in words

## CCCCCCCCCCCCCCCCSCC(C[N+](C)(C)CCO)OC.[I-] (racemic) [Compound 12, (±)-3-hexadecylthio-2-methoxy-N,N-dimethyl-N-β-hydroxyethyl-1-propyl ammonium iodide]
[1]
  inhibition of HSV-2 plaque formation: neither inhibits herpes simplex virus type 2 (HSV-2) plaque formation in Vero cell monolayers
Extracellular HIV-1; 2.0 μM, in words
  inactivation of extracellular HIV-1 infectivity: does not inactivate extracellular HIV-1 infectivity
Extracellular HIV-1; HIV-1 treated 2.0 μM, 3 hours, 37° C., diluted 20-fold, N=2 (medium: 27 plaques)
  mean residual plaques: 22 plaques
HIV-1 [2]; 13 days
  infectious virus production: infectious virus production is still inhibited
HIV-1 [2]; between 8 and 10 days
  infectious virus production: markedly inhibit infectious virus production
Reverse transcriptase; 13 days
  reverse transcriptase activity: reverse transcriptase activity increases
Reverse transcriptase; between 8 and 10 days
  reverse transcriptase activity: markedly inhibit infectious virus production and reverse transcriptase activity in a dose-dependent manner
HIV-1 [3]
  selectivity against HIV-1 plaque formation: selective inhibitory activity against HIV-1 plaque formation
Extracellular HSV-2
  inactivation of extracellular HSV-2 infectivity: nor directly inactivates extracellular HSV-2 infectivity
